Experimental data published in article PMC10687071 (The Journal of Biological Chemistry, 2023).
Substitutions are numbered along the chain they refer to.

How the values were obtained:
[1] = target: T1, V83G mutant EAG1 channels (Mus musculus, UniProt Q60603, V83G); experiment: TEVC recording, imipramine inhibition, V83G mutant; format: cell-based; details: V83G mutant EAG1 channel, +50 mV
T1 construct: expressed in transfected cells; host or cells: Xenopus laevis oocytes injected with cRNA
T1 sequence (Q60603 1-989 V83G): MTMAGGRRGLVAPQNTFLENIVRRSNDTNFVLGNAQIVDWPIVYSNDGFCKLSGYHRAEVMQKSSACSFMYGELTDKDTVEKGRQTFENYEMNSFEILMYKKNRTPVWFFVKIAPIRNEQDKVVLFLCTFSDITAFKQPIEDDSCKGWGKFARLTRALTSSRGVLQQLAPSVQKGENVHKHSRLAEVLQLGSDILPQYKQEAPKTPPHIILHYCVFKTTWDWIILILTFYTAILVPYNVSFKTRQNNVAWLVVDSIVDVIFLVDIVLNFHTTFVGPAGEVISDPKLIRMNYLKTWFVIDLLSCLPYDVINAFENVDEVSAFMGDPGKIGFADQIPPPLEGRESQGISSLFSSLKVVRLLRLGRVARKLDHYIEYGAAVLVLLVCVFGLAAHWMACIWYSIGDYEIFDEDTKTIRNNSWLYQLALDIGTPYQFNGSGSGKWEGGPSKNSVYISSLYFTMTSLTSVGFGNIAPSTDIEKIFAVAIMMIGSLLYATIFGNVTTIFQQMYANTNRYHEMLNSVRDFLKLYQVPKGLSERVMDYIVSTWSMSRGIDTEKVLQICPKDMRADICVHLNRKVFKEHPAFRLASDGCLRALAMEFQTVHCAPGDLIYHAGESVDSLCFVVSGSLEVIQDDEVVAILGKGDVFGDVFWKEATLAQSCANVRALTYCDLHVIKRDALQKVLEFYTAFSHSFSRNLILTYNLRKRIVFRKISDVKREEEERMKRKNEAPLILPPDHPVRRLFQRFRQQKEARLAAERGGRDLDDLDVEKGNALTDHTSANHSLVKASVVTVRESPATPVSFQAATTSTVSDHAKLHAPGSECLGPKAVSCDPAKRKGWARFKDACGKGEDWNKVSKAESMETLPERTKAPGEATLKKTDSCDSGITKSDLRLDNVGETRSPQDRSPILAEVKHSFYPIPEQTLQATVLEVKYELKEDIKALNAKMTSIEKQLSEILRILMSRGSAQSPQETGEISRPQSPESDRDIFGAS
Source text: (§1) The cDNA encoding wild-type (WT) mouse EAG1 channels in pGH19 vector was kindly provided by G. Robertson (University of Wisconsin-Madison, Madison, WI). The mutant ΔPAS EAG1 channel in pGH19 with the deletion of the PAS domain residues 2 to 130 was generated by Bio Basic Inc and verified by DNA sequencing (Genewiz). Mutant EAG1 channels with single amino acid substitutions were generated by Genewiz and verified by DNA sequencing. cRNA was transcribed using the T7 mMessage mMachine kit (Thermo Fisher Scientific). Defolliculated Xenopus laevis oocytes were purchased from Ecocyte Bioscience or Xenopus1 and injected with the cRNA using a Nanoinject II oocyte injector (Drummond).
(§2) For EAG1 current recordings, oocytes were placed into a handmade chamber containing a bath solution for the current recording. The currents were recorded using a TEVC technique with OC-725C amplifier (Warner Instruments) and pClamp11 software (Molecular Devices). The signals were digitized using Digidata 1550 (Molecular Devices). Patch pipettes were pulled from borosilicate glass and had resistances of 0.7 to 1.5 MΩ. The recording (bath) solution contained 96 mM NaCl, 4 mM KCl, 0.1 mM CaCl2, 1.8 mM MgCl2, and 5 mM HEPES, pH 7.5. The pipette solution contained 3 M KCl. […]

[2] = target: T2, V80G mutant EAG1 channels (Mus musculus, UniProt Q60603, V80G); experiment: TEVC recording, imipramine inhibition, V80G mutant; format: cell-based; details: V80G mutant EAG1 channel, +50 mV
T2 construct: expressed in transfected cells; host or cells: Xenopus laevis oocytes injected with cRNA
T2 sequence (Q60603 1-989 V80G): T1 sequence (Q60603 1-989 V83G) with V80G, G83V
Source text: as §1, §2

IC50 [1]: 44.3 ± 2.6 µM
IC50 [2]: 57.1 ± 3.1 µM
Compound: CN(C)CCCN1c2ccccc2CCc2ccccc21 [imipramine]
